Patent publication US8658661B2, “Oxadiazole inhibitors of leukotriene production” (Boehringer Ingelheim International GmbH, priority 2010, dated 2014)

Experiments:
[1] = system: synthesis of LTB4 in human whole blood; experiment: Human whole blood assay (inhibition of LTB4 synthesis, calcimycin stimulated); type: cell-based; conditions: heparinized human whole blood, calcimycin 20 μM, plasma LTB4
Experimental: Compounds are additionally tested in a human whole blood assay to determine their ability to inhibit the synthesis of LTB4 in a cellular system. Compounds are combined with heparinized human whole blood and incubated for 15 minutes at 37° C. Calcimycin (20 μM final, prepared in phosphate-buffered saline, pH 7.4) is then added and the mixture is incubated for another 30 minutes at 37° C. The samples are centrifuged for 5 min at low speed (1500×g) and the plasma layer is removed. Plasma LTB4 concentrations are then measured using an antibody-based homogenous time-resolved fluorescence method (CisBio, Bedford, Mass.).

[2] = biological target: T1, recombinant human FLAP protein (Homo sapiens, UniProt P20292); experiment: FLAP binding assay (SPA, displacement of [125I]L-691,831); conditions: membranes of sf9 cells expressing recombinant human FLAP; [125I]L-691,831 probe; read-out: FLAP binding IC50
T1 construct: made in house; host or cells: Sf9 insect cells (100,000×g membrane pellet used)
T1 sequence (P20292 1-161): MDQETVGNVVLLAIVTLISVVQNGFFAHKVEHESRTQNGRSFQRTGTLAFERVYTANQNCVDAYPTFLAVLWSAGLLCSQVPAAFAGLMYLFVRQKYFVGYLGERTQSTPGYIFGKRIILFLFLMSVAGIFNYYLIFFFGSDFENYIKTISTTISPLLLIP
Experimental: Assessment of Biological Properties 1. Binding Assay
Compounds are assessed for the ability to bind to FLAP in a binding assay that measures compound-specific displacement of an iodinated (^125I) FLAP inhibitor via a Scintillation Proximity Assay format (adapted from S. Charleson et al., Mol. Pharmacol., 1992, 41, 873-879).
Cell pellets produced from sf9 insect cells expressing recombinant human FLAP protein are resuspended in buffer A [15 mM Tris-HCl (pH 7.5), 2 mM MgCl2, 0.3 mM EDTA, 1 mM PMSF]. The cells are lysed with a Dounce homogenizer and the material is centrifuged at 10,000×g for 10 minutes. The supernatant is then collected and centrifuged at 100,000×g for 60 minutes. To prepare membrane protein for an assay, an aliquot of the 100,000×g pellet is resuspended in 1 ml of buffer A, Dounce homogenized, and finally subjected to polytron mixing (30 seconds). Membrane protein (25 μl, 5 μg) is mixed with WGA SPA beads (Amersham) and stirred for 1 h. […] (final concentrations: beads, 200 μg/well; protein, 5 μg/well; [^125I] probe, 0 08 nM/well (17 nCi/well). The plates are shaken for 2 h before reading on a Microbeta plate reader. Non-specific binding is determined by the addition of 10 μM cold L-691,831 compound.

Question: With `COCCNc1cnc(-c2nc([C@](C)(c3ccc(-c4cnc(N)nc4)cc3)C(C)C)no2)cn1` [Example 124, 5-{4-[(2S)-2-(5-{5-[(2-methoxyethyl)amino]pyrazin-2-yl} 1,2,4-oxadiazol-3-yl)-3-methylbutan-2-yl]phenyl}pyrimidin-2-amine] as the compound, how does the IC50 [1] read?
Answer: 31 nM

Question: What about the IC50 [2] of the same compound?
Answer: 2.3 nM

Question: Which results are given for `CC(C)[C@@](C)(c1ccc(-c2cnc(N)nc2)cc1)c1noc(-c2ccn[nH]2)n1` [Example 24, 5-(4-{(2S)-3-methyl-2-[5-(1H-pyrazol-5-yl)-1,2,4-oxadiazol-3-yl]butan-2-yl}phenyl)pyrimidin-2-amine]?
Answer: IC50 [1]: 410 nM; IC50 [2]: 19 nM

Question: Which results are given for `Cn1cc(-c2nc(C(C)(c3ccc(-c4cncc(OCc5ccccc5)c4)cc3)C3CC3)no2)cn1` (stereo not shown) [Example 290, 3-Benzyloxy-5-(4-{1-cyclopropyl-1-[5-(1-methyl-1H-pyrazol-4-yl)-[1,2,4]oxadiazol-3-yl]-ethyl}-phenyl)-pyridine]?
Answer: IC50 [1]: 2000 nM; IC50 [2]: 22 nM

Question: For `CC(C)C(C)(c1ccc(-c2cnc(N)nc2)cc1)c1noc(C(=O)N2CCNCC2)n1` (stereo not shown) [Example 84, (3-{2-[4-(2-aminopyrimidin-5-yl)phenyl]-3-methylbutan-2-yl}-1,2,4-oxadiazol-5-yl)(piperazin-1-yl)methanone], which IC50 [1] is on record?
Answer: 1700 nM

Question: And the IC50 [2]?
Answer: 120 nM

Question: `CO[C@H]1CCN(C(=O)Cn2cc(-c3nc([C@@](C)(c4ccc(-c5cnc(N)nc5)cc4)C4CC4)no3)cn2)C1` [Example 221, 2-[4-(3-{(R)-1-[4-(2-Amino-pyrimidin-5-yl)-phenyl]-1-cyclopropyl-ethyl}-[1,2,4]oxadiazol-5-yl)-pyrazol-1-yl]-1-((S)-3-methoxy-pyrrolidin-1-yl)-ethanone] was tested. Which IC50 [1] did it give?
Answer: 150 nM

Question: And the IC50 [2]?
Answer: 6.2 nM

Question: For `Cn1cc(-c2nc(C(C)(C)c3ccc(-c4cnc(N)nc4)cc3)no2)cn1` [Example 68, 5-(4-{2-[5-(1-methyl-1H-pyrazol-4-yl)-1,2,4-oxadiazol-3-yl]propan-2-yl}phenyl)pyrimidin-2-amine], which IC50 [1] is on record?
Answer: 93 nM

Question: And the IC50 [2]?
Answer: 6.7 nM

Question: How did the IC50 [1] turn out when `CC(C)[C@@](C)(c1ccc(-c2cnc(N)nc2)cc1)c1noc(N2CCC(O)CC2)n1` (single isomer, unassigned) [Example 224] was run?
Answer: 760 nM

Question: `CC(C)C(C)(c1ccc(-c2cnc(N)nc2)cc1)c1noc(N2CCOCC2)n1` (stereo not shown) [Example 89, 5-(4-{3-methyl-2-[5-(morpholin-4-yl)-1,2,4-oxadiazol-3-yl]butan-2-yl}phenyl)pyrimidin-2-amine] was tested. Which IC50 [1] did it give?
Answer: 270 nM

Question: What about the IC50 [2] of the same compound?
Answer: 13 nM

Question: What does the source list for `CN(C)C(=O)Cn1cc(-c2nc(C(C)(c3ccc(-c4cnc(N)c(F)c4)cc3)C3CC3)no2)cn1` (stereo not shown) [Example 243, 2-[4-(3-{1-[4-(6-Amino-5-fluoro-pyridin-3-yl)-phenyl]-1-cyclopropyl-ethyl}-[1 ,2,4]oxadiazol-5-yl)-pyrazol-1-yl]-N,N-dimethyl-acetamide]?
Answer: IC50 [1]: 170 nM; IC50 [2]: 12 nM

Question: Which results are given for `CC(C)C(C)(c1ccc(-c2cnc(N)nc2)cc1)c1noc(C2CCCCN2C(=O)OC(C)(C)C)n1` (stereo not shown) [Example 112, tert-butyl 2-(3-{2-[4-(2-aminopyrimidin-5-yl)phenyl]-3-methylbutan-2-yl}-1,2,4-oxadiazol-5-yl)piperidine-1-carboxylate]?
Answer: IC50 [1]: > 5000 nM; IC50 [2]: 190 nM

Question: Which results are given for `CC(C)C(C)(c1ccc(-c2cnc(N)nc2)cc1)c1noc(C2(C)CCCCC2)n1` (stereo not shown) [Example 120, 5-(4-{3-methyl-2-[5-(1-methylcyclohexyl)-1,2,4-oxadiazol-3-yl]butan-2-yl}phenyl)pyrimidin-2-amine]?
Answer: IC50 [1]: 2100 nM; IC50 [2]: 40 nM

Question: How did the IC50 [1] turn out when `CC(C)C(C)(c1ccc(-c2cnc(N)nc2)cc1)c1noc(N2CCNC(=O)C2)n1` (stereo not shown) [Example 199, 4-(3-{1-[4-(2-Amino-pyrimidin-5-yl)-phenyl]-1,2-dimethyl-propyl}-[1,2,4]oxadiazol-5-yl)-piperazin-2-one] was run?
Answer: 690 nM

Question: And the IC50 [2]?
Answer: 32 nM

Question: What does the source list for `CC(C)C(C)(c1ccc(-c2cnc(N)nc2)cc1)c1noc(C2CCN(C)CC2)n1` (stereo not shown) [Example 150, 5-(4-{3-methyl-2-[5-(1-methylpiperidin-4-yl)-1,2,4-oxadiazol-3-yl]butan-2-yl}phenyl)pyrimidin-2-amine]?
Answer: IC50 [1]: 1800 nM; IC50 [2]: 330 nM

Question: For `CC(C)C(C)(c1ccc(-c2cnc(N)nc2)cc1)c1noc(-c2ccc(C#N)nc2)n1` (stereo not shown) [Example 128, 5-(3-{2-[4-(2-aminopyrimidin-5-yl)phenyl]-3-methylbutan-2-yl}-1,2,4-oxadiazol-5-yl)pyridine-2-carbonitrile], which IC50 [1] is on record?
Answer: 240 nM

Question: What about the IC50 [2] of the same compound?
Answer: 1.6 nM

Question: How did the IC50 [1] turn out when `CC(c1ccc(-c2cnc(N)nc2)cc1)(c1noc(-c2cc[nH]n2)n1)C1CC1` (stereo not shown) [Example 25, 5-(4-{1-cyclopropyl-1-[5-(1H-pyrazol-3-yl)-1,2,4-oxadiazol-3-yl]ethyl}phenyl)pyrimidin-2-amine] was run?
Answer: 170 nM

Question: And the IC50 [2]?
Answer: 6 nM

Question: Which results are given for `CC(C)C(C)(c1ccc(-c2cnc(N)nc2)cc1)c1noc(-c2ccccc2)n1` (stereo not shown) [Example 2, 5-{4-[3-methyl-2-(5-phenyl-1,2,4-oxadiazol-3-yl)butan-2-yl]phenyl}pyrimidin-2-amine]?
Answer: IC50 [1]: 680 nM; IC50 [2]: 5.1 nM

Question: `C[C@](c1ccc(-c2cnc(N)nc2)cc1)(c1noc(N2CCC(O)CC2)n1)C1CC1` [Example 234, 1-(3-{(S)-1-[4-(2-Amino-pyrimidin-5-yl)-phenyl]-1-cyclopropyl-ethyl}-[1,2,4]oxadiazol-5-yl)-piperidin-4-ol] was tested. Which IC50 [1] did it give?
Answer: 1000 nM

Question: Which IC50 [1] does the source give for `CC(C)C(C)(c1ccc(-c2cnc(N)nc2)cc1)c1noc(N2CCC(C)(O)CC2)n1` (stereo not shown) [Example 216, 1-(3-{1-[4-(2-Amino-pyrimidin-5-yl)-phenyl]-1,2-dimethyl-propyl}-[1,2,4]oxadiazol-5-yl)-4-methyl-piperidin-4-ol] here?
Answer: 34 nM

Question: Which IC50 [1] does the source give for `CC(c1ccc(-c2cnc(N)nc2)cc1)(c1noc(N2CCC(O)CC2)n1)C1CC1` (stereo not shown) [Example 205, 1-(3-{1-[4-(2-Amino-pyrimidin-5-yl)-phenyl]-1-cyclopropyl-ethyl}-[1,2,4]oxadiazol-5-yl)-piperidin-4-ol] here?
Answer: 68 nM

Question: For `COc1cncc(-c2ccc(C(C)(c3noc(-c4cnccn4)n3)C(C)C)cc2)c1` (stereo not shown) [Example 1, 2-(3-{2-[4-(5-methoxypyridin-3-yl)phenyl]-3-methylbutan-2-yl}-1,2,4-oxadiazol-5-yl)pyrazine], which IC50 [2] is on record?
Answer: 57 nM

Question: How did the IC50 [1] turn out when `CC(C)[C@@](C)(c1ccc(-c2cnc(N)nc2)cc1)c1noc(N2CCC(C)(O)CC2)n1` [Example 228, 1-(3-{(S)-1-[4-(2-Amino-pyrimidin-5-yl)-phenyl]-1,2-dimethyl-propyl}-[1,2,4]oxadiazol-5-yl)-4-methyl-piperidin-4-ol] was run?
Answer: 550 nM

Question: For `CC(C)C(C)(c1ccc(-c2cnc(N)nc2)cc1)c1noc(C2CC2)n1` (stereo not shown) [Example 156, 5-{4-[2-(5-cyclopropyl-1,2,4-oxadiazol-3-yl)-3-methylbutan-2-yl]phenyl}pyrimidin-2-amine], which IC50 [2] is on record?
Answer: 15 nM

Question: Which IC50 [2] does the source give for `CC(C)C(C)(c1ccc(-c2cnc(N)nc2)cc1)c1noc(-c2ccccc2S(C)(=O)=O)n1` (stereo not shown) [Example 149, 5-[4-(3-methyl-2-{5-[2-(methylsulfonyl)phenyl]-1,2,4-oxadiazol-3-yl}butan-2-yl)phenyl]pyrimidin-2-amine] here?
Answer: 58 nM

Question: How did the IC50 [1] turn out when `CC(C)C(C)(c1ccc(-c2cnc(N)nc2)cc1)c1noc(N2CCC(O)CC2)n1` (stereo not shown) [Example 262, 1-(3-{1-[4-(2-Amino-pyrimidin-5-yl)-phenyl]-1,2-dimethyl-propyl}-[1,2,4]oxadiazol-5-yl)-piperidin-4-ol] was run?
Answer: 84 nM

Question: `CC(C)C(C)(c1ccc(-c2cnc(N)nc2)cc1)c1noc(-c2cnc(=O)[nH]c2)n1` (stereo not shown) [Example 154, 5-(3-{2-[4-(2-aminopyrimidin-5-yl)phenyl]-3-methylbutan-2-yl}-1,2,4-oxadiazol-5-yl)pyrimidin-2(1H)-one] was tested. Which IC50 [2] did it give?
Answer: 3.3 nM

Question: `CC(C)C(C)(c1ccc(-c2cnc(N)nc2)cc1)c1noc(-c2nccs2)n1` (stereo not shown) [Example 139, 5-(4-{3-methyl-2-[5-(1,3-thiazol-2-yl)-1,2,4-oxadiazol-3-yl]butan-2-yl}phenyl)pyrimidin-2-amine] was tested. Which IC50 [2] did it give?
Answer: 4.4 nM

Question: With `Cc1csc(-c2nc(C(C)(c3ccc(-c4cnc(N)nc4)cc3)C(C)C)no2)n1` (stereo not shown) [Example 131, 5-(4-{3-methyl-2-[5-(4-methyl-1,3-thiazol-2-yl)-1,2,4-oxadiazol-3-yl]butan-2-yl}phenyl)pyrimidin-2-amine] as the compound, how does the IC50 [2] read?
Answer: 8.7 nM

Question: For `COc1ncccc1-c1nc(C(C)(c2ccc(-c3cnc(N)nc3)cc2)C(C)C)no1` (stereo not shown) [Example 10, 5-(4-{2-[5-(2-methoxypyridin-3-yl)-1,2,4-oxadiazol-3-yl]-3-methylbutan-2-yl}phenyl)pyrimidin-2-amine], which IC50 [2] is on record?
Answer: 4.3 nM
